The pIC50 is the IC50 on a negative log10 scale, so that one unit is a factor of ten.

pIC50: −log10 of the molar value. Some results are limits rather than exact numbers.

The target in this experiment is human c-MER catalytic domain (Homo sapiens (Human), UniProt Q12866). Briefly: TR-FRET Kinase Activity Biochemical Assay (LanthaScreen). To be noted: 10 uM ATP, 1 hour, kinase not given. In short, it runs like this: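 Recombinant human c-MER catalytic domain phosphorylated fluorescein-labeled poly-GT substrate. The reaction was stopped with 10 mM EDTA, then 2 nM Tb-labeled anti-phosphotyrosine antibody was added for 30 min. Kinase activity was taken from the 495/520 nm TR-FRET emission ratio after 340 nm excitation.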
human c-MER catalytic domain, sequence (Q12866 587-858): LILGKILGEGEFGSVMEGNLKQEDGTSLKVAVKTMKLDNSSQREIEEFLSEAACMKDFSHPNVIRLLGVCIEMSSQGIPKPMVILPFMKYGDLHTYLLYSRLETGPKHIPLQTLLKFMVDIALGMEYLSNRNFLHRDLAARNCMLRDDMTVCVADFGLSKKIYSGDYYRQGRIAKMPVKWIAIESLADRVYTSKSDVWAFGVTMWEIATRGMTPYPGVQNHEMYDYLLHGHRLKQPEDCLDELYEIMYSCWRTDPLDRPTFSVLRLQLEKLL
For orientation: Time-resolved FRET reads energy transfer from a long-lived donor to a nearby acceptor.
Turning to `Cn1cc(-c2cnc3[nH]nc(N[C@@H]4CCN(C(=O)c5ccc(-c6ccc(Oc7ccc(N)cc7)cc6)cc5)C4)c3c2)cn1` [Example 620, (R)-(4′-(4-aminophenoxy)-[1,1′-biphenyl]-4-yl)(3-((5-(1-methyl-1H-pyrazol-4-yl)-1H-pyrazolo[3,4-b]pyridin-3-yl)amino)pyrrolidin-1-yl)methanone], the pIC50 is 6.00 to 7.00.
For `CC(c1ccccc1Cl)N1CC[C@@H](NC(=O)c2cc(-c3cnn(C4CCNCC4)c3)cnc2N)C1` (stereo partly drawn) [Example 148, 2-amino-N-((3R)-1-(1-(2-chlorophenyl)ethyl)pyrrolidin-3-yl)-5-(1-(piperidin-4-yl)-1H-pyrazol-4-yl)nicotinamide], the pIC50 was 7.00 to 8.00.
To `Cn1cc(-c2cnc(N)c(C(=O)N[C@@H]3CCN(C(=O)c4ccc(-c5ccc(CCC(=O)O)cc5)cc4)C3)c2)cn1` [Example 678, (R)-3-(4′-(3-(2-amino-5-(1-methyl-1H-pyrazol-4-yl)nicotinamido)pyrrolidine-1-carbonyl)-[1,1′-biphenyl]-4-yl) propanoic acid] belongs 6.00 to 7.00.
To `Cn1cc(-c2cnc(N)c(C(=O)N[C@@H]3CCN(C(=O)c4cc(-c5ccccc5)ccc4N)C3)c2)cn1` [Example 486, (R)-2-amino-N-(1-(4-amino-[1,1′-biphenyl]-3-carbonyl)pyrrolidin-3-yl)-5-(1-methyl-1H-pyrazol-4-yl)nicotinamide] belongs 6.00 to 7.00.
In turn, `Nc1ncc(-c2ccc(CN3CCOCC3)cc2)cc1C(=O)N[C@@H]1CCN(C(=O)c2ccc(-c3ccccc3)cc2)C1` [Example 569, (R)—N-(1-([1,1′-biphenyl]-4-carbonyl)pyrrolidin-3-yl)-2-amino-5-(4-(morpholinomethyl)phenyl)nicotinamide] had a negative logarithm of the IC50 (pIC50) of 7.00 to 8.00.
For `Cn1cc(-c2cnc(N)c(C(=O)N[C@@H]3CCN(C(=O)c4ccc(-c5cccnc5)cc4)C3)c2)cn1` [Example 356, (R)-2-amino-5-(1-methyl-1H-pyrazol-4-yl)-N-(1-(4-(pyridin-3-yl)benzoyl)pyrrolidin-3-yl)nicotinamide] the value was 6.00 to 7.00; for `Cn1cc(-c2cnc(N)c(C(=O)N[C@@H]3CCN(C(=O)Oc4cccc(OCC5CCNCC5)c4)C3)c2)cn1` [Example 304], 6.00 to 7.00; for `Cn1cc(-c2cnc(N)c(C(=O)N[C@@H]3CCN(C(=O)Nc4cccc(Cl)c4Cl)C3)c2)cn1` [Example 15, (R)-2-amino-N-(1-((2,3-dichlorophenyl)carbamoyl)pyrrolidin-3-yl)-5-(1-methyl-1H-pyrazol-4-yl)nicotinamide], 7.00 to 8.00.
For `Nc1ncc(-c2ccc(N3CCOCC3)cc2)cc1C(=O)N[C@@H]1CCN(C(=O)c2ccc(-c3ccc(F)cc3Cl)cc2)C1` [Example 782, (R)-2-amino-N-(1-(2′-chloro-4′-fluoro-[1,1′-biphenyl]-4-carbonyl)pyrrolidin-3-yl)-5-(4-morpholinophenyl)nicotinamide] the value was 7.00 to 8.00.
For `CN1CCN(Cc2ccc(-c3cccc(/C=C/C(=O)N4CC[C@@H](NC(=O)c5cc(-c6cnn(C)c6)cnc5N)C4)c3)cc2)CC1` [Example 431, (R,E)-2-amino-5-(1-methyl-1H-pyrazol-4-yl)-N-(1-(3-(4′-((4-methylpiperazin-1-yl)methyl)-[1,1′-biphenyl]-3-yl)acryloyl)pyrrolidin-3-yl)nicotinamide] the value was 6.00 to 7.00; for `CN(C)CCCOc1ccc2ccc(OC(=O)N3CC[C@@H](NC(=O)c4cc(-c5cnn(C)c5)cnc4N)C3)cc2c1` [Example 295, 7-(3-(dimethylamino)propoxy)naphthalen-2-yl (R)-3-(2-amino-5-(1-methyl-1H-pyrazol-4-yl)nicotinamido)pyrrolidine-1-carboxylate], 7.00 to 8.00; for `Cn1cc(-c2cnc(N)c(C(=O)N[C@@H]3CCN(C(=O)Oc4cccc(-c5ccc(CNCC(=O)O)cc5)c4)C3)c2)cn1` [Example 326, (R)-((3′-((3-(2-amino-5-(1-methyl-1H-pyrazol-4-yl)nicotinamido)pyrrolidine-1-carbonyl)oxy)-[1,1′-biphenyl]-4-yl)methyl)glycine], 6.00 to 7.00.
As to `Cn1cc(-c2cnc(N)c(C(=O)N[C@@H]3CCN(C(=O)Oc4cccc(-c5cccc(CN6CCC[C@H](N)C6)c5)c4)C3)c2)cn1` [Example 339, 3′-(((S)-3-aminopiperidin-1-yl)methyl)-[1,1′-biphenyl]-3-yl (R)-3-(2-amino-5-(1-methyl-1H-pyrazol-4-yl)nicotinamido)pyrrolidine-1-carboxylate], the pIC50 was 6.00 to 7.00.
To `Cn1cc(-c2cnc3[nH]nc(N[C@@H]4CCN(C(=O)c5ccc(-c6ccc(OC7CCNCC7)cc6)cc5)C4)c3c2)cn1` [Example 792, (R)-(3-((5-(1-methyl-1H-pyrazol-4-yl)-1H-pyrazolo[3,4-b]pyridin-3-yl)amino)pyrrolidin-1-yl)(4′-(piperidin-4-yloxy)-[1,1′-biphenyl]-4-yl)methanone] belongs greater than 8.00.
To `Cn1cc(-c2cnc(N)c(C(=O)N[C@@H]3CCN(C(=O)c4ccc5[nH]ccc5c4)C3)c2)cn1` [Example 502, (R)—N-(1-(1H-indole-5-carbonyl)pyrrolidin-3-yl)-2-amino-5-(1-methyl-1H-pyrazol-4-yl)nicotinamide] belongs less than 6.00; to `Cn1cc(-c2cnc(N)c(C(=O)N[C@@H]3CN(C(=O)c4ccc(-c5ccccc5)cc4)C[C@@H]3O)c2)cn1` [Example 743, N-((3R,4S)-1-([1,1′-biphenyl]-4-carbonyl)-4-hydroxypyrrolidin-3-yl)-2-amino-5-(1-methyl-1H-pyrazol-4-yl)nicotinamide], less than 6.00; to `COc1cccc(CN2CC[C@@H](NC(=O)c3cc(-c4cnn(C)c4)cnc3N)C2)c1OC` [Example 217, (R)-2-amino-N-(1-(2,3-dimethoxybenzyl)pyrrolidin-3-yl)-5-(1-methyl-1H-pyrazol-4-yl)nicotinamide], 6.00 to 7.00.
The compound `Cn1cc(-c2cnc(N)c(C(=O)N[C@@H]3CCN(C(=O)c4ccc(-c5ccncc5)cc4)C3)c2)cn1` [Example 489, (R)-2-amino-5-(1-methyl-1H-pyrazol-4-yl)-N-(1-(4-(pyridin-4-yl)benzoyl)pyrrolidin-3-yl)nicotinamide] gave a pIC50 of 6.00 to 7.00.
The compound `Cn1cc(-c2cnc(N)c(C(=O)N[C@@H]3CCN(C(=O)c4cccc(-c5cccc(N)c5)c4)C3)c2)cn1` [Example 457, (R)-2-amino-N-(1-(3′-amino-[1,1′-biphenyl]-3-carbonyl)pyrrolidin-3-yl)-5-(1-methyl-1H-pyrazol-4-yl)nicotinamide] gave a pIC50 of less than 6.00.
Compound `CC1CC(C)CC(OC(=O)N2CC[C@@H](NC(=O)c3cc(-c4cnn(C)c4)cnc3N)C2)C1` (stereo partly drawn) [Example 79, 3,5-dimethylcyclohexyl (3R)-3-(2-amino-5-(1-methyl-1H-pyrazol-4-yl)nicotinamido)pyrrolidine-1-carboxylate] had a pIC50 of less than 6.00.
To `Cn1cc(-c2cnc(N)c(C(=O)N[C@@H]3CCN(C(=O)c4nc5cc(Cl)ccc5o4)C3)c2)cn1` [Example 498, (R)-2-amino-N-(1-(5-chlorobenzo[d]oxazole-2-carbonyl)pyrrolidin-3-yl)-5-(1-methyl-1H-pyrazol-4-yl)nicotinamide] belongs less than 6.00.
For `Cn1cc(-c2cnc(N)c(C(=O)N[C@H]3CN(C(=O)c4ccc(-c5ccccc5)cc4)C[C@@H]3O)c2)cn1` [Example 742, N-((3S,4S)-1-([1,1′-biphenyl]-4-carbonyl)-4-hydroxypyrrolidin-3-yl)-2-amino-5-(1-methyl-1H-pyrazol-4-yl)nicotinamide] the value was 6.00 to 7.00; for `CC(C)(C)OC(=O)N1CCC(n2cc(-c3cnc(N)c(C(=O)N[C@@H]4CCN(C(=O)c5ccc(-c6ccccc6)cc5)C4)c3)cn2)CC1` [Example 561, tert-butyl (R)-4-(4-(5-((1-([1,1′-biphenyl]-4-carbonyl)pyrrolidin-3-yl)carbamoyl)-6-aminopyridin-3-yl)-1H-pyrazol-1-yl)piperidine-1-carboxylate], 7.00 to 8.00; for `Cn1cc(-c2cnc(N)c(C(=O)N[C@@H]3CCN(C(=O)c4cccc5c4oc4ccccc45)C3)c2)cn1` [Example 501, (R)-2-amino-N-(1-(dibenzo[b,d]furan-4-carbonyl)pyrrolidin-3-yl)-5-(1-methyl-1H-pyrazol-4-yl)nicotinamide], less than 6.00.
`Nc1ncc(-c2ccc(CO)cc2)cc1C(=O)N[C@@H]1CCN(C(=O)Nc2cc(Cl)cc(Cl)c2)C1` [Example 10, (R)-2-amino-N-(1-((3,5-dichlorophenyl)carbamoyl)pyrrolidin-3-yl)-5-(4-(hydroxymethyl)phenyl)nicotinamide] showed a pIC50 of 7.00 to 8.00.
For `CN1CCN(Cc2cccc(N3CC[C@H](OC(=O)N4CC[C@@H](NC(=O)c5cc(-c6cnn(C)c6)cnc5N)C4)C3)c2)CC1` [Example 626, (S)-1-(3-((4-methylpiperazin-1-yl)methyl)phenyl)pyrrolidin-3-yl (R)-3-(2-amino-5-(1-methyl-1H-pyrazol-4-yl)nicotinamido)pyrrolidine-1-carboxylate] the value was less than 6.00; for `Cn1cc(-c2cnc3[nH]nc(N[C@@H]4CCN(C(=O)c5ccc(-c6ccccc6)cc5)C4)c3c2)cn1` [Example 616, (R)-[1,1′-biphenyl]-4-yl(3-((5-(1-methyl-1H-pyrazol-4-yl)-1H-pyrazolo[3,4-b]pyridin-3-yl)amino)pyrrolidin-1-yl)methanone], 6.00 to 7.00.
To `Cn1cc(-c2cnc(N)c(C(=O)N[C@@H]3CCN(C(=O)Oc4cccc(-c5cnn(C6CCNCC6)c5)c4)C3)c2)cn1` [Example 285, 3-(1-(piperidin-4-yl)-1H-pyrazol-4-yl)phenyl (R)-3-(2-amino-5-(1-methyl-1H-pyrazol-4-yl)nicotinamido)pyrrolidine-1-carboxylate] belongs 6.00 to 7.00.
To `Cn1cc(-c2cnc(N)c(C(=O)N[C@@H]3CCN(Cc4cccc(Oc5ccccc5)c4)C3)c2)cn1` [Example 221, (R)-2-amino-5-(1-methyl-1H-pyrazol-4-yl)-N-(1-(3-phenoxybenzyl)pyrrolidin-3-yl)nicotinamide] belongs less than 6.00.

These data come from patent US12378224B2 (Dong-A Socio Holdings Co., Ltd., priority 2016, dated 2025).
